Test: Estimated glomerular filtration rate (eGFR, CKD-EPI equation)
Assay type: in vivo, human
Settings: for Estimated Glomerular Filtration Rate, mean observed / Estimated Glomerular Filtration Rate, mean change from baseline: Part 1

CC(=O)N[C@H]1CC[C@H](NC(=O)CN2CCN(c3nncc(-c4ccc(C)cc4)n3)CC2)CC1 [Compound A HBr]
eGFR mean maximum decline relative to baseline (100 mg QD, Part 1, Week 2): 10.91 mL/min/1.73 m^2 | Estimated Glomerular Filtration Rate, mean observed (12.5 mg BID, BL): 81.70 mL/min/1.73 m^2 | Estimated Glomerular Filtration Rate, mean change from baseline (12.5 mg BID, Week 1): −2.25 mL/min/1.73 m^2 | Estimated Glomerular Filtration Rate, mean observed (12.5 mg BID, Week 1): 79.45 mL/min/1.73 m^2 | Estimated Glomerular Filtration Rate, mean change from baseline (12.5 mg BID, Week 2): −3.69 mL/min/1.73 m^2 | Estimated Glomerular Filtration Rate, mean observed (12.5 mg BID, Week 2): 78.86 mL/min/1.73 m^2 | Estimated Glomerular Filtration Rate, mean change from baseline (12.5 mg BID, Week 3): −5.17 mL/min/1.73 m^2 | Estimated Glomerular Filtration Rate, mean observed (12.5 mg BID, Week 3): 77.38 mL/min/1.73 m^2 | Estimated Glomerular Filtration Rate, mean change from baseline (12.5 mg BID, Week 4): −6.58 mL/min/1.73 m^2 | Estimated Glomerular Filtration Rate, mean observed (12.5 mg BID, Week 4): 76.30 mL/min/1.73 m^2 | Estimated Glomerular Filtration Rate, mean change from baseline (12.5 mg BID, Week 5): −7.58 mL/min/1.73 m^2 | Estimated Glomerular Filtration Rate, mean observed (12.5 mg BID, Week 5): 73.84 mL/min/1.73 m^2 | Estimated Glomerular Filtration Rate, mean change from baseline (12.5 mg BID, Week 6): −6.45 mL/min/1.73 m^2 | Estimated Glomerular Filtration Rate, mean observed (12.5 mg BID, Week 6): 74.70 mL/min/1.73 m^2 | Estimated Glomerular Filtration Rate, mean change from baseline (12.5 mg BID, Week 7): −7.03 mL/min/1.73 m^2 | Estimated Glomerular Filtration Rate, mean observed (12.5 mg BID, Week 7): 75.85 mL/min/1.73 m^2 | Estimated Glomerular Filtration Rate, mean change from baseline (12.5 mg BID, Week 8): −6.66 mL/min/1.73 m^2 | Estimated Glomerular Filtration Rate, mean observed (12.5 mg BID, Week 8): 76.32 mL/min/1.73 m^2 | Estimated Glomerular Filtration Rate, mean observed (12.5 mg QD, BL): 77.87 mL/min/1.73 m^2 | Estimated Glomerular Filtration Rate, mean change from baseline (12.5 mg QD, Week 1): −4.30 mL/min/1.73 m^2 | Estimated Glomerular Filtration Rate, mean observed (12.5 mg QD, Week 1): 73.57 mL/min/1.73 m^2 | Estimated Glomerular Filtration Rate, mean change from baseline (12.5 mg QD, Week 2): −4.87 mL/min/1.73 m^2 | Estimated Glomerular Filtration Rate, mean observed (12.5 mg QD, Week 2): 73.00 mL/min/1.73 m^2 | Estimated Glomerular Filtration Rate, mean change from baseline (12.5 mg QD, Week 3): −2.05 mL/min/1.73 m^2 | Estimated Glomerular Filtration Rate, mean observed (12.5 mg QD, Week 3): 77.21 mL/min/1.73 m^2 | Estimated Glomerular Filtration Rate, mean change from baseline (12.5 mg QD, Week 4): −5.45 mL/min/1.73 m^2 | Estimated Glomerular Filtration Rate, mean observed (12.5 mg QD, Week 4): 73.40 mL/min/1.73 m^2 | Estimated Glomerular Filtration Rate, mean change from baseline (12.5 mg QD, Week 5): −3.60 mL/min/1.73 m^2 | Estimated Glomerular Filtration Rate, mean observed (12.5 mg QD, Week 5): 75.25 mL/min/1.73 m^2 | Estimated Glomerular Filtration Rate, mean change from baseline (12.5 mg QD, Week 6): −6.28 mL/min/1.73 m^2 | Estimated Glomerular Filtration Rate, mean observed (12.5 mg QD, Week 6): 73.39 mL/min/1.73 m^2 | Estimated Glomerular Filtration Rate, mean change from baseline (12.5 mg QD, Week 7): −7.17 mL/min/1.73 m^2 | Estimated Glomerular Filtration Rate, mean observed (12.5 mg QD, Week 7): 72.50 mL/min/1.73 m^2 | Estimated Glomerular Filtration Rate, mean change from baseline (12.5 mg QD, Week 8): −3.67 mL/min/1.73 m^2 | Estimated Glomerular Filtration Rate, mean observed (12.5 mg QD, Week 8): 76.00 mL/min/1.73 m^2 | Estimated Glomerular Filtration Rate, mean observed (25 mg BID, BL): 80.85 mL/min/1.73 m^2 | Estimated Glomerular Filtration Rate, mean change from baseline (25 mg BID, Week 1): −6.85 mL/min/1.73 m^2 | Estimated Glomerular Filtration Rate, mean observed (25 mg BID, Week 1): 74.00 mL/min/1.73 m^2 | Estimated Glomerular Filtration Rate, mean change from baseline (25 mg BID, Week 2): −5.42 mL/min/1.73 m^2 | Estimated Glomerular Filtration Rate, mean observed (25 mg BID, Week 2): 75.43 mL/min/1.73 m^2 | Estimated Glomerular Filtration Rate, mean change from baseline (25 mg BID, Week 3): −5.90 mL/min/1.73 m^2 | Estimated Glomerular Filtration Rate, mean observed (25 mg BID, Week 3): 75.07 mL/min/1.73 m^2 | Estimated Glomerular Filtration Rate, mean change from baseline (25 mg BID, Week 4): −6.69 mL/min/1.73 m^2 | Estimated Glomerular Filtration Rate, mean observed (25 mg BID, Week 4): 73.48 mL/min/1.73 m^2 | Estimated Glomerular Filtration Rate, mean change from baseline (25 mg BID, Week 5): −7.41 mL/min/1.73 m^2 | Estimated Glomerular Filtration Rate, mean observed (25 mg BID, Week 5): 73.25 mL/min/1.73 m^2 | Estimated Glomerular Filtration Rate, mean change from baseline (25 mg BID, Week 6): −8.02 mL/min/1.73 m^2 | Estimated Glomerular Filtration Rate, mean observed (25 mg BID, Week 6): 72.64 mL/min/1.73 m^2 | Estimated Glomerular Filtration Rate, mean change from baseline (25 mg BID, Week 7): −7.85 mL/min/1.73 m^2 | Estimated Glomerular Filtration Rate, mean observed (25 mg BID, Week 7): 72.22 mL/min/1.73 m^2 | Estimated Glomerular Filtration Rate, mean change from baseline (25 mg BID, Week 8): −5.55 mL/min/1.73 m^2 | Estimated Glomerular Filtration Rate, mean observed (25 mg BID, Week 8): 75.11 mL/min/1.73 m^2 | Estimated Glomerular Filtration Rate, mean observed (50 mg QD, BL): 77.18 mL/min/1.73 m^2 | Estimated Glomerular Filtration Rate, mean change from baseline (50 mg QD, Week 1): −2.96 mL/min/1.73 m^2 | Estimated Glomerular Filtration Rate, mean observed (50 mg QD, Week 1): 74.21 mL/min/1.73 m^2
